Laboratory results from ChEMBL document CHEMBL1132276, “Development of predictive retention-activity relationship models of tricyclic antidepressants by micellar liquid chromatography” (J Med Chem, 1999).

Tests used:
[1] = Protonation constant of the compound.; format: ADME
[2] = log k (capacity factor) was measured by micellar liquid chromatography in Brij35 medium; details: 0.04 M Brij35
physchem [3] = details: buffer, pH 7.4
Description: log P values determined at pH 7.4

physchem [4] = details: octanol/water
[5] = buffer, pH 7.4
Description: log P values determined at pH 7.4

[6] = Protonation constant by using Brij35 as a medium; format: ADME
[7] = Half life period is estimated; format: ADME
[8] = Compound was tested for its binding affinity towards brain (Hippocampus) Adenylate cyclase; parameters: species or system Cavia porcellus
[9] = Compound was tested for its inhibitory activity against Noradrenaline receptor; parameters: species or system Rattus norvegicus
[10] = Volume of distribution in the plasma fluid was determined; format: ADME, organism-based
Histamine H1 receptor = Histamine H1 receptor (Rattus norvegicus, UniProt P31390); test: Compound tested for its inhibitory activity against Histamine H1 receptor
[11] = Therapeutic plasma levels for the compound was evaluated.; format: ADME, cell-free
[12] = target: Serotonin (5-HT) receptor; test: Compound was tested for its inhibitory activity against 5-hydroxytryptamine receptor; format: protein assay, Rattus norvegicus
Histamine H2 receptor = Histamine H2 receptor (Cavia porcellus, UniProt P47747); test: Inhibitory activity against brain adenylate cyclase Histamine H2 receptor; format: functional
[13] = Compound was tested for its binding affinity towards brain (neocortex) Adenylate cyclase; parameters: species or system Cavia porcellus
[14] = target: T1, Alpha-1A adrenergic receptor (Rattus norvegicus, UniProt P43140); test: Compound was tested for its inhibitory activity against Alpha-1 adrenergic receptor
T1 sequence (P43140 whole entry): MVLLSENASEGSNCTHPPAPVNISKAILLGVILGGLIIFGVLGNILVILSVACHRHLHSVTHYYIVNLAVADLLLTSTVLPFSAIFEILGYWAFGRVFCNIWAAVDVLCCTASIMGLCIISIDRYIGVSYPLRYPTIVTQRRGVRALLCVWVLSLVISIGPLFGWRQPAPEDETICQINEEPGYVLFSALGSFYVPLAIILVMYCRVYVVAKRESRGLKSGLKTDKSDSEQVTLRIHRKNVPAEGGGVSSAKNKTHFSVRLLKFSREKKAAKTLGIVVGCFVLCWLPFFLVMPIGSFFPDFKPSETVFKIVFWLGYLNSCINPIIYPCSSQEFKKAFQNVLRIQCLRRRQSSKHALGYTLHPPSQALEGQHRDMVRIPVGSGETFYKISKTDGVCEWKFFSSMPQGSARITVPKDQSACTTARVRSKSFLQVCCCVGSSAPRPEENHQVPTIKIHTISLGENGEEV

in vivo = details: plasma
Description: Plasma clearance for the compound was determined.

[15] = log P value at pH 7.4; format: physicochemical; details: buffer
[16] = Partition coefficient (logP); format: physicochemical; details: octanol/water
[17] = octanol/water

Histamine H1 receptor, sequence (P31390 whole entry): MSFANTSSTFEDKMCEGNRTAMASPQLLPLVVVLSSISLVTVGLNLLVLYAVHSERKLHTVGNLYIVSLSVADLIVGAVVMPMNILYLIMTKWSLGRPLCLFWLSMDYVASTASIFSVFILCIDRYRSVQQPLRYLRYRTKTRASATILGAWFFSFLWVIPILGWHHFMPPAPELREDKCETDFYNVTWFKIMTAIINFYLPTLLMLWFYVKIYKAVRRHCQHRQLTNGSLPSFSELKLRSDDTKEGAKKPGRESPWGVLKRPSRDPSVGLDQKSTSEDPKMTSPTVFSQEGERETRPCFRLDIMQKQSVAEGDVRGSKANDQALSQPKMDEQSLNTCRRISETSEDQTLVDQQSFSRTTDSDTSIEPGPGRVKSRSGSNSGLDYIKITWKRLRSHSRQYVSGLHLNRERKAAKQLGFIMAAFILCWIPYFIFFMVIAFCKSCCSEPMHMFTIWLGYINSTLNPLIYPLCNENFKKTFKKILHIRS
Histamine H2 receptor, sequence (P47747 whole entry): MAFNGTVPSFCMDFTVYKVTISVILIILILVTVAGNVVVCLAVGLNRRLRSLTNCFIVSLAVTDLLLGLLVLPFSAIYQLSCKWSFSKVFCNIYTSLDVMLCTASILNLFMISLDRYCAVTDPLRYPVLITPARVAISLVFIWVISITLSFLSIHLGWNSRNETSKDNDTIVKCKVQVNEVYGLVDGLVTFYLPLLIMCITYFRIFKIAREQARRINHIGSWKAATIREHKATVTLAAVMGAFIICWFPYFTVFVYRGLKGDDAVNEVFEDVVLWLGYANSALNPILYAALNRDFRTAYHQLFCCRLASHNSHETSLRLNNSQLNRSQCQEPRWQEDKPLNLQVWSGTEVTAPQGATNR

For CN1CCN(C2=Nc3ccccc3Oc3ccc(Cl)cc32)CC1 [LOXAPINE], which pKa [1] is on record?
The pKa was 6.6.

And the “Log K” value [2]?
The value was 1.86.

For CNCCCC12CCC(c3ccccc31)c1ccccc12 [MAPROTILINE], which pKa [1] is on record?
The pKa was 10.5.

And the logD (physchem [3])?
Its logD is 1.12.

And the “Log K” value [2]?
The value was 1.47.

And the logP (physchem [4])?
Its logP is 4.22.

For Clc1ccc2c(c1)C(N1CCNCC1)=Nc1ccccc1O2 [AMOXAPINE], which pKa [1] is on record?
Its pKa is 7.6.

What about the “Log K” value [2] of the same molecule?
Its value is 1.63.

And the logD [5]?
The logD was 3.48.

And the logP (physchem [4])?
The logP was 3.89.

For CC(CN(C)C)CN1c2ccccc2CCc2ccccc21 (stereo not given) [TRIMIPRAMINE], which “Log K” value [2] is on record?
Its value is 1.86.

And the logD [5]?
The logD was 4.64.

And the logP (physchem [4])?
Its logP is 4.73.

And the pKa [6]?
Its pKa is 6.77.

Which results are given for CN(C)CCC=C1c2ccccc2CSc2ccccc21 [DOTHIEPIN]?
pKa [1]: 9.25; logD (physchem [3]): 2.66; Log K [2]: 1.74; logP (physchem [4]): 4.52

What does the source list for c1ccc2c(c1)CCc1ccccc1N2C1CN2CCC1CC2 (stereo not given) [QUINUPRAMINE]?
logD (physchem [3]): 1.36; Log K [2]: 1.62; logP (physchem [4]): 4.94; pKa [6]: 7.85

For CN(C)CCC=C1c2ccccc2CCc2ccccc21 [AMITRIPTYLINE], which half-life [7] is on record?
Its half-life is 27.5 h.

What about the Ki [8] of the same molecule?
Its Ki is 53 nM.

What about the IC50 [9] of the same molecule?
The IC50 was 41 nM.

What about the pKa [1] of the same molecule?
The pKa was 9.42.

What about the Vd [10] of the same molecule?
The Vd was 15 L/kg.

And the logD (physchem [3])?
The logD was 2.62.

What about the IC50 (Histamine H1 receptor) of the same molecule?
The IC50 was 20 nM.

What about the T.P.L [11] of the same molecule?
Its T.P.L is 180 ng/mL.

And the IC50 [12]?
The IC50 was 44 nM.

And the “Log K” value [2]?
Its value is 1.84.

And the logP (physchem [4])?
The logP was 4.64.

And the IC50 (Histamine H2 receptor)?
Its IC50 is 660 nM.

And the Ki [13]?
The Ki was 60 nM.

And the IC50 [14]?
The IC50 was 20 nM.

And the clearance (in vivo)?
The clearance was 1200 mL/min.

With CN1CCN2c3ccccc3Cc3ccccc3C2C1 (stereo not given) [MIANSERIN] as the molecule, how does the half-life [7] read?
Its half-life is 25 h.

What about the Ki [8] of the same molecule?
The Ki was 65 nM.

What about the pKa [1] of the same molecule?
The pKa was 7.1.

What about the Vd [10] of the same molecule?
Its Vd is 16 L/kg.

And the logD (physchem [3])?
Its logD is 4.08.

What about the “Log K” value [2] of the same molecule?
The value was 1.87.

What about the logP (physchem [4]) of the same molecule?
Its logP is 4.26.

And the IC50 (Histamine H2 receptor)?
Its IC50 is 880 nM.

And the Ki [13]?
Its Ki is 71 nM.

Which results are given for CNCCCN1c2ccccc2CCc2ccccc21 [DESIPRAMINE]?
half-life [7]: 37.5 h; Ki [8]: 350 nM; IC50 [9]: 2 nM; Vd [10]: 22 L/kg; T.P.L [11]: 212.5 ng/mL; Log K [2]: 1.46; IC50 (Histamine H2 receptor): 3800 nM; Ki [13]: 320 nM

What does the source list for O=C(O)CCCCCCNC1c2ccccc2CCc2ccccc21 [AMINEPTINE]?
logD [15]: 2.26; Log K [2]: 1.09; logP [16]: 2.44; pKa [6]: 5.24

For CN(C)CCC=C1c2ccccc2C(C)(C)c2ccccc21, which pKa [1] is on record?
The pKa was 7.38.

And the logD (physchem [3])?
The logD was 4.83.

And the “Log K” value [2]?
The value was 1.97.

And the logP (physchem [4])?
Its logP is 5.12.

What does the source list for CNCCC=C1c2ccccc2CCc2ccccc21 [NORTRIPTYLINE]?
half-life [7]: 35.5 h; Ki [8]: 450 nM; IC50 [9]: 9 nM; pKa [1]: 9.7; Vd [10]: 35 L/kg; logD (physchem [3]): 2.02; IC50 (Histamine H1 receptor): 50 nM; Log K [2]: 1.52; logP (physchem [4]): 4.32; IC50 (Histamine H2 receptor): 7000 nM; Ki [13]: 280 nM; IC50 [14]: 40 nM; clearance (in vivo): 1320 mL/min

With CN(C)CCCN1c2ccccc2CCc2ccc(Cl)cc21 [CLOMIPRAMINE] as the molecule, how does the logP [17] read?
Its logP is 5.19.

What about the Ki [8] of the same molecule?
Its Ki is 55 nM.

And the IC50 [9]?
Its IC50 is 46 nM.

And the pKa [1]?
The pKa was 9.38.

And the Vd [10]?
The Vd was 13.5 L/kg.

And the logD (physchem [3])?
The logD was 3.32.

And the T.P.L [11]?
The T.P.L was 90 ng/mL.

What about the “Log K” value [2] of the same molecule?
Its value is 1.89.

And the IC50 (Histamine H2 receptor)?
Its IC50 is 720 nM.

And the Ki [13]?
Its Ki is 43 nM.

And the clearance (in vivo)?
The clearance was 1210 mL/min.

What does the source list for CN(C)CC/C=C1/c2ccccc2COc2ccccc21 [DOXEPIN]?
half-life [7]: 16.5 h; Ki [8]: 170 nM; IC50 [9]: 65 nM; pKa [1]: 9; logD (physchem [3]): 2.27; Log K [2]: 1.69; logP (physchem [4]): 3.88; IC50 (Histamine H2 receptor): 1600 nM; Ki [13]: 190 nM; IC50 [14]: 10 nM; clearance (in vivo): 850 mL/min

Which Ki [8] does the source give for CN(C)CCCN1c2ccccc2CCc2ccccc21 [IMIPRAMINE] here?
Its Ki is 160 nM.

What about the IC50 [9] of the same molecule?
Its IC50 is 46 nM.

And the Vd [10]?
The Vd was 30 L/kg.

What about the IC50 (Histamine H1 receptor) of the same molecule?
Its IC50 is 60 nM.

And the T.P.L [11]?
The T.P.L was 275 ng/mL.

And the “Log K” value [2]?
Its value is 1.8.

What about the IC50 (Histamine H2 receptor) of the same molecule?
The IC50 was 1900 nM.

And the Ki [13]?
Its Ki is 160 nM.
